Reference: patent publication US20260130933A1, “PHARMACEUTICAL COMPOSITION FOR PREVENTION OR TREATMENT OF NEPHROPATHY AND/OR DIABETES MELLITUS, COMPRISING ENAVOGLIFLOZIN” (DAEWOONG PHARMACEUTICAL CO., LTD., priority 2022, published 2026)

Experiment: Example 1: phase 3 trial, enavogliflozin 0.3 mg once a day as monotherapy vs placebo for 24 weeks in patients with type 2 diabetes (HbA1c, FPG, C-peptide, body weight, lipids, blood pressure, HOMA, UACR, UGCR, adiponectin, leptin, safety)
Assay type: in vivo, human
Protocol: When a subject voluntarily gave written consent to participate in this clinical trial, a screening test was conducted. […] However, when the administration of a hypoglycemic agent was interrupted before the clinical trial Visit 1 (screening), at least an 8-week washout period, including the discontinuation period, was required, and during this period, a stable diet and exercise program was followed. Naïve patients were screened without a separate washout period, and the criteria for naïve patients were defined as patients who had not been administered hypoglycemic agents within 24 weeks prior to the date of obtaining written consent. […] In addition, they were instructed to maintain regular exercise and dietary control starting from 8 weeks prior to screening without changing their daily life patterns during the clinical trial period.

Q: With `OC[C@H]1O[C@@H](c2cc(Cc3ccc(C4CC4)cc3)c(Cl)c3c2CCO3)[C@H](O)[C@@H](O)[C@@H]1O` [Enavogliflozin, (2S,3R,4R,5S,6R)-2-(7-chloro-6 (4-cyclopropylbenzyl)-2,3-dihydrobenzofuran-4-yl)-6-(hydroxymethyl)tetrahydro-2H-pyran-3,4,5-triol] as the molecule, how does the fasting C-peptide, Mean (SD) (week 6) read?
A: 0.66 ng/mL

Q: And the “systolic blood pressure change from baseline, LS mean” value (week 6)?
A: −5.38 mmHg

Q: And the “systolic blood pressure change from baseline, Mean” value (week 6)?
A: −4.81 mmHg

Q: What about the “total cholesterol change from baseline, LS mean” value (week 6) of the same molecule?
A: 5.76 mg/dL

Q: What about the “total cholesterol change from baseline, Mean” value (week 6) of the same molecule?
A: 5.75 mg/dL

Q: What about the “total cholesterol, Mean” value (week 6) of the same molecule?
A: 166.11 mg/dL

Q: What about the “triglycerides change from baseline, LS mean” value (week 6) of the same molecule?
A: -5.05 mg/dL

Q: What about the “triglycerides change from baseline, Mean” value (week 6) of the same molecule?
A: -1.21 mg/dL

Q: And the “triglycerides, Mean” value (week 6)?
A: 116.13 mg/dL

Q: What about the “FPG change from baseline, LS mean difference” value (week 6, vs placebo) of the same molecule?
A: -26.91 mg/dL

Q: What about the “HDL-C change from baseline, LS mean difference” value (week 6, vs placebo) of the same molecule?
A: 1.89 mg/dL

Q: What about the “HOMA-IR change from baseline, LS mean difference” value (week 6, vs placebo) of the same molecule?
A: −1.81

Q: And the “HOMA-β change from baseline, LS mean difference” value (week 6, vs placebo)?
A: 3.30

Q: And the “HbA1c change from baseline, LS mean difference” value (week 6, vs placebo)?
A: −0.52 % p

Q: And the “LDL-C change from baseline, LS mean difference” value (week 6, vs placebo)?
A: 0.64 mg/dL

Q: And the “Odds ratio for achieving HbA1c<6.5%” value (week 6, vs placebo)?
A: 3.29

Q: What about the “Odds ratio for achieving HbA1c<7%” value (week 6, vs placebo) of the same molecule?
A: 6.55

Q: What about the “Odds ratio for achieving therapeutic response” value (week 6, vs placebo) of the same molecule?
A: 12.84

Q: And the “UACR change from baseline, LS mean difference” value (week 6, vs placebo)?
A: 7.96 g/kg

Q: And the “UGCR change from baseline, LS mean difference” value (week 6, vs placebo)?
A: 52.97 mg/mg

Q: What about the “adiponectin change from baseline, LS mean difference” value (week 6, vs placebo) of the same molecule?
A: 0.26 µg/mL

Q: And the “body weight change from baseline, LS mean difference” value (week 6, vs placebo)?
A: -1.45 kg

Q: What about the “diastolic blood pressure change from baseline, LS mean difference” value (week 6, vs placebo) of the same molecule?
A: −2.43 mmHg

Q: What about the fasting C-peptide change from baseline, LS mean difference (week 6, vs placebo) of the same molecule?
A: -0.11 ng/mL

Q: What about the “leptin change from baseline, LS mean difference” value (week 6, vs placebo) of the same molecule?
A: -2.89 ng/mL

Q: What about the “systolic blood pressure change from baseline, LS mean difference” value (week 6, vs placebo) of the same molecule?
A: −4.07 mmHg

Q: What about the “total cholesterol change from baseline, LS mean difference” value (week 6, vs placebo) of the same molecule?
A: 1.95 mg/dL

Q: What about the “triglycerides change from baseline, LS mean difference” value (week 6, vs placebo) of the same molecule?
A: -17.69 mg/dL

Q: What about the HbA1c change from baseline, LS mean difference (week 6, vs placebo, listed as enavogliflozin) of the same molecule?
A: -0.52 % p

Q: And the “Body weight, Mean” value (week 12)?
A: 66.12 kg

Q: And the “Diastolic blood pressure, Mean” value (week 12)?
A: 72.83 mmHg

Q: What about the “FPG change from baseline, LS mean (SE)” value (week 12) of the same molecule?
A: −30.66(2.93) mg/dL

Q: And the “FPG change from baseline, Mean (SD)” value (week 12)?
A: −29.34(20.90) mg/dL

Q: What about the “FPG, Mean (SD)” value (week 12) of the same molecule?
A: 111.66(13.55) mg/dL

Q: And the “HDL-C change from baseline, LS mean” value (week 12)?
A: 2.35 mg/dL

Q: And the “HDL-C change from baseline, Mean” value (week 12)?
A: 2.22 mg/dL

Q: And the “HDL-C, Mean” value (week 12)?
A: 54.14 mg/dL

Q: What about the “HbA1c change from baseline, LS mean (SE)” value (week 12) of the same molecule?
A: −0.84(0.07) % p

Q: And the “HbA1c change from baseline, Mean (SD)” value (week 12)?
A: −0.80(0.55) % p

Q: And the “HbA1c, Mean (SD)” value (week 12)?
A: 6.84(0.53) %

Q: What about the “LDL-C change from baseline, LS mean” value (week 12) of the same molecule?
A: -2.31 mg/dL

Q: What about the “LDL-C change from baseline, Mean” value (week 12) of the same molecule?
A: -0.09 mg/dL

Q: And the “LDL-C, Mean” value (week 12)?
A: 95.38 mg/dL

Q: What about the “Subjects achieving HbA1c target of <6.5%” value (week 12) of the same molecule?
A: 22(26.83) %

Q: And the “Subjects achieving HbA1c target of <7%” value (week 12)?
A: 54(65.85) %

Q: And the “Subjects achieving therapeutic glycemic response (HbA1c change >0.5% or HbA1c<7%)” value (week 12)?
A: 70(85.37) %

Q: What about the “Systolic blood pressure, Mean” value (week 12) of the same molecule?
A: 122.06 mmHg

Q: What about the “body weight change from baseline, LS mean” value (week 12) of the same molecule?
A: -2.59 kg

Q: What about the “body weight change from baseline, Mean” value (week 12) of the same molecule?
A: -2.65 kg

Q: What about the “diastolic blood pressure change from baseline, LS mean” value (week 12) of the same molecule?
A: −3.82 mmHg

Q: What about the “diastolic blood pressure change from baseline, Mean” value (week 12) of the same molecule?
A: −3.40 mmHg

Q: And the fasting C-peptide, Mean (SD) (week 12)?
A: 0.64 ng/mL

Q: And the “systolic blood pressure change from baseline, LS mean” value (week 12)?
A: −6.37 mmHg

Q: And the “systolic blood pressure change from baseline, Mean” value (week 12)?
A: −5.78 mmHg

Q: What about the “total cholesterol change from baseline, LS mean” value (week 12) of the same molecule?
A: 4.75 mg/dL

Q: And the “total cholesterol change from baseline, Mean” value (week 12)?
A: 5.99 mg/dL

Q: And the “total cholesterol, Mean” value (week 12)?
A: 167.40 mg/dL

Q: What about the “triglycerides change from baseline, LS mean” value (week 12) of the same molecule?
A: 6.37 mg/dL

Q: What about the “triglycerides change from baseline, Mean” value (week 12) of the same molecule?
A: 2.90 mg/dL

Q: What about the “triglycerides, Mean” value (week 12) of the same molecule?
A: 120.34 mg/dL

Q: And the “FPG change from baseline, LS mean difference” value (week 12, vs placebo)?
A: -32.26 mg/dL

Q: What about the “HDL-C change from baseline, LS mean difference” value (week 12, vs placebo) of the same molecule?
A: 2.36 mg/dL

Q: And the “HOMA-IR change from baseline, LS mean difference” value (week 12, vs placebo)?
A: −1.72

Q: What about the “HOMA-β change from baseline, LS mean difference” value (week 12, vs placebo) of the same molecule?
A: 12.09

Q: What about the “HbA1c change from baseline, LS mean difference” value (week 12, vs placebo) of the same molecule?
A: −0.71 % p

Q: And the “LDL-C change from baseline, LS mean difference” value (week 12, vs placebo)?
A: -6.00 mg/dL

Q: And the “Odds ratio for achieving HbA1c<6.5%” value (week 12, vs placebo)?
A: 7.58

Q: And the “Odds ratio for achieving HbA1c<7%” value (week 12, vs placebo)?
A: 6.53

Q: And the “Odds ratio for achieving therapeutic response” value (week 12, vs placebo)?
A: 14.77

Q: And the “UACR change from baseline, LS mean difference” value (week 12, vs placebo)?
A: -15.16 g/kg

Q: What about the “UGCR change from baseline, LS mean difference” value (week 12, vs placebo) of the same molecule?
A: 51.21 mg/mg

Q: What about the “adiponectin change from baseline, LS mean difference” value (week 12, vs placebo) of the same molecule?
A: 0.67 µg/mL

Q: And the “body weight change from baseline, LS mean difference” value (week 12, vs placebo)?
A: -1.66 kg

Q: What about the “diastolic blood pressure change from baseline, LS mean difference” value (week 12, vs placebo) of the same molecule?
A: −2.33 mmHg

Q: And the fasting C-peptide change from baseline, LS mean difference (week 12, vs placebo)?
A: -0.12 ng/mL

Q: And the “leptin change from baseline, LS mean difference” value (week 12, vs placebo)?
A: -3.17 ng/mL

Q: What about the “systolic blood pressure change from baseline, LS mean difference” value (week 12, vs placebo) of the same molecule?
A: −3.06 mmHg

Q: And the “total cholesterol change from baseline, LS mean difference” value (week 12, vs placebo)?
A: -4.04 mg/dL

Q: And the “triglycerides change from baseline, LS mean difference” value (week 12, vs placebo)?
A: -10.37 mg/dL

Q: What about the “Body weight, Mean” value (week 18) of the same molecule?
A: 65.32 kg

Q: And the “Diastolic blood pressure, Mean” value (week 18)?
A: 72.60 mmHg

Q: What about the “FPG change from baseline, LS mean (SE)” value (week 18) of the same molecule?
A: −31.97(3.23) mg/dL

Q: What about the “FPG change from baseline, Mean (SD)” value (week 18) of the same molecule?
A: −30.52(22.34) mg/dL

Q: What about the “FPG, Mean (SD)” value (week 18) of the same molecule?
A: 110.48(14.49) mg/dL

Q: What about the “HDL-C change from baseline, LS mean” value (week 18) of the same molecule?
A: 4.18 mg/dL

Q: What about the “HDL-C change from baseline, Mean” value (week 18) of the same molecule?
A: 3.62 mg/dL

Q: What about the “HDL-C, Mean” value (week 18) of the same molecule?
A: 55.55 mg/dL

Q: And the “HbA1c change from baseline, LS mean (SE)” value (week 18)?
A: −0.81(0.09) % p

Q: And the “HbA1c change from baseline, Mean (SD)” value (week 18)?
A: −0.77(0.67) % p
